Data as given in patent publication US20150064255A1, “NANOSTRUCTURES FOR TREATING CANCERS AND OTHER CONDITIONS” (Northwestern University, priority 2012, published 2015).

Assays:
Ramos cells = assay: MTS cell viability assay; type: cell-based, human; settings: untreated control set to 100%
Excerpt: Ramos and SUDHL-4 cell lines are GC-derived B cell lines from BL and DLBCL, respectively. In addition, we chose to study the ABC-like DLBCL line, LY3. Jurkat cells and normal human lymphocytes provided SR-B1 receptor negative controls. In addition, we also chose two primary cells known to express SR-B1 that are critical cell types naturally engaged by HDLs, hepatocytes and macrophages. For each of the cell types, we measured cell viability by an MTS assay following treatment with human serum derived HDL (hHDL) or HDL-NPs. MTS is a colorimetric assay where the magnitude of absorbance is proportional to cell viability. For each treatment, and for each comparison made throughout our studies, we added equivalent doses of hHDL and HDL-NPs based upon the amount of apolipoprotein A-1 (Apo A1). […] Treatment with hHDL or HDL-NPs had no effect in primary hepatocytes or macrophage cells (FIGS. 3C and 3D). […]
For primary human hepatocytes and CD14+ monocytes, 9×10^3 cells/90 μL were seeded in 96-well plates and allowed to attach, and differentiate in the case of the CD14+ monocytes, for 24 hours prior to initiation of treatment. […] The absorbance was read at 490 nm using a microplate reader (MRX Revelation; DYNEX Technologies) and was expressed as a percentage of the control group. […]

SR-B1 = biological target: T1, SR-B1 (Homo sapiens, UniProt Q8WTV0); assay: BLT-1 cholesterol flux assays in SUDHL-4 cells; type: cell-based; settings: SUDHL-4 cells pre-treated with 10 μM BLT-1 for 2 hr
T1 construct: treatment of SUDHL-4 cells with BLT-1 allowed a measurement of engagement and cholesterol flux through SR-B1; endogenous in cells; host or cells: SUDHL-4 cells
T1 sequence (Q8WTV0 1-552): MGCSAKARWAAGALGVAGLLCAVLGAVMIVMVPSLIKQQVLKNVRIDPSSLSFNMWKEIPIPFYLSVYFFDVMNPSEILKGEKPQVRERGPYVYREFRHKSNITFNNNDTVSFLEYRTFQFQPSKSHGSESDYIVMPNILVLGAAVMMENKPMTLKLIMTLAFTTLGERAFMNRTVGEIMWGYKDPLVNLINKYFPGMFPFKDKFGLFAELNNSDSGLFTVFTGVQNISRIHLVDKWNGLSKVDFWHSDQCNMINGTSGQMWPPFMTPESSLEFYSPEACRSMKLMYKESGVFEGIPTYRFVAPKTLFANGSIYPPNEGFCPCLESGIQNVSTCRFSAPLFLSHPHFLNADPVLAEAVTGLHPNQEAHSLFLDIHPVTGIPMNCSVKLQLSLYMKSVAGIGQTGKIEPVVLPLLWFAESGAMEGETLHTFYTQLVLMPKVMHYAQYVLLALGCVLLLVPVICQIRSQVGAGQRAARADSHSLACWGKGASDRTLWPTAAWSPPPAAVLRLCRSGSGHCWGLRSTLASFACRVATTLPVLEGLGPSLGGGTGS
Method: Blocker of lipid transport-1 (BLT-1) is a small molecule that binds cysteine-384 in the extracellular loop domain of SR-B1 and inhibits cholesterol flux through SR-B1 without altering the binding of HDL particles to the receptor. Thus, treatment of SUDHL-4 cells with BLT-1 allowed a measurement of engagement and cholesterol flux through SR-B1.
Alterations in cholesterol flux after addition of blocker of lipid transport 1 (BLT-1) were measured as described above; however, cells were pre-treated with 10 μM BLT-1 (2-hexyl-1-cyclopentanone thiosemicarbazone, ChemBridge Corporation) for 2 hr prior to cell treatments. Following cholesterol influx or efflux, the cells were collected in fresh media for measurement of cholesterol flux as previously described. Efflux is expressed as a percentage of the control cells, which were not treated with BLT-1. Influx is expressed as a percentage of the control cells, which were not treated with BLT-1.

| cholesterol flux to hHDL and HDL-NPs (SR-B1) | Compound | relative absorbance, MTS assay (cell viability) (Ramos cells) |
| --- | --- | --- |
| – | CCCCCCCCCCCCCCCC(=O)OC[C@H](COP(=O)(O)OCCNC(=O)CCSSc1ccccn1)OC(=O)CCCCCCCCCCCCCCC [PDP PE, 1,2-dipalmitoyl-sn-glycero-3-phosphoethanolamine-N-[3-(2-pyridyldithio)propionate]] | relatively small but statistically significant reduction |
| inhibited cholesterol flux | CCCCCCC1CCCC1=NNC(N)=S (centres unmarked) [BLT-1, 2-hexyl-1-cyclopentanone thiosemicarbazone] | – |
